EC50 and IC50 data for 18 compounds are collected here from patent US11046686B2, “Thiadiazole IRAK4 compounds” (Gilead Sciences, Inc., priority 2018, dated 2021).

Read-outs that look alike come from different tables or passages of the source.

What is called EC50 is the concentration needed to bring the measured effect to its halfway point. A word on the IC50: it is the concentration needed to halve the response being measured.

Experiment [1] relates to TNFα. In words: IRAK4 Monocyte TNFα Cell Based Assay. Further details: species or system human. Conditions: read-out: EC50 MONO TNF HTRF. Put shortly: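 TNFα release quantified by HTRF (cryptate/XL665 antibody pair, overnight at RT) after 1 h compound pre-incubation (0.1% DMSO) and 4 h LPS challenge at 50 pg/ml, 37 °C, 5,000 monocytes per well. Signal ratio normalised between unstimulated (0%) and stimulated (100%) controls.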
A general note: Time-resolved FRET reads energy transfer from a long-lived donor to a nearby acceptor.

Experiment [2] deals with IRAK4 enzyme (Homo sapiens (Human), UniProt Q9NWZ3). In words: IRAK4 Biochemical Assay (TR-FRET, STK1 KinEASE). Put shortly: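 TR-FRET endpoint (KinEASE STK1): phosphopeptide detected with cryptate antibody and tracer after EDTA quench, ratio 665/615 nm, normalized to no-inhibitor wells as % inhibition. Reaction: 0.75 nM IRAK4, […] peptide, 500 μM ATP, pH 7.0 HEPES, 120 min room temperature, after 15 min compound preincubation with enzyme.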

Setting [3] is: Homo sapiens, Monocyte, human monocytes, second part of Table 2, compounds 33-343, unit inferred.

Chain of IRAK4 enzyme (Q9NWZ3 whole entry): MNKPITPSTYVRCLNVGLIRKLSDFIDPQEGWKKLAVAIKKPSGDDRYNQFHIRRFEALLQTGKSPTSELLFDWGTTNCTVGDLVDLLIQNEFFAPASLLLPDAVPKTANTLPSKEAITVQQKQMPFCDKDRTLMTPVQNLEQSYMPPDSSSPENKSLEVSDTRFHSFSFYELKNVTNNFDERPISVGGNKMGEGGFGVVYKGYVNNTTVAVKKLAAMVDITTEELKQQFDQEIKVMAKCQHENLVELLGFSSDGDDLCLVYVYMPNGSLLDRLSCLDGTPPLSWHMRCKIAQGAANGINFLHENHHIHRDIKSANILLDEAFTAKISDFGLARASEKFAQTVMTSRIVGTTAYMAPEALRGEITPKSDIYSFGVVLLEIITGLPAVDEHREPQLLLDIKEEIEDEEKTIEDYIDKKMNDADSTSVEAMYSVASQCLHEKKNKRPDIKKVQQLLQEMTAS

Regarding `CC(C)Nc1cc(-c2ccc3cc(C#N)cnn23)ncc1-c1nnc(N2CC3CCCC(C3)C2)s1` [Example 295, 7-(5-(5-(3-azabicyclo[3.3.1]nonan-3-yl)-1,3,4-thiadiazol-2-yl)-4-(isopropylamino)pyridin-2-yl)pyrrolo[1,2-b]pyridazine-3-carbonitrile], the EC50 in experiment [1] (setting [3]) is 1000 nM. Half-maximal inhibition in experiment [2] (IC50) required 57.7 nM.

`CC(=O)N[C@@H]1CCCN(c2nnc(-c3cnc(-c4ccc5cc(C#N)cnn45)cc3NC(C)C)s2)C1` [Example 296, (R)-N-(1-(5-(6-(3-cyanopyrrolo[1,2-b]pyridazin-7-yl)-4-(isopropylamino)pyridin-3-yl)-1,3,4-thiadiazol-2-yl)piperidin-3-yl)acetamide]: the EC50 in experiment [1] (setting [3]) is 1000 nM. This compound had an IC50 in experiment [2] of 1.02 nM.

As to `CC(C)Nc1cc(-c2ccc3cc(C#N)cnn23)ncc1-c1nnc(N2CC(O)(C(F)(F)F)C2)s1` [Example 297, 7-(5-(5-(3-hydroxy-3-(trifluoromethyl)azetidin-1-yl)-1,3,4-thiadiazol-2-yl)-4-(isopropylamino)pyridin-2-yl)pyrrolo[1,2-b]pyridazine-3-carbonitrile], the EC50 in experiment [1] (setting [3]) came out at 10 nM. Half-maximal inhibition in experiment [2] (IC50) required 0.67 nM.

With `CC(=O)NC1CCCN(c2nnc(-c3cnc(-c4ccc5cc(C#N)cnn45)cc3NC(C)C)s2)CC1` (stereo not drawn) [Example 298, N-(1-(5-(6-(3-cyanopyrrolo[1,2-b]pyridazin-7-yl)-4-(isopropylamino)pyridin-3-yl)-1,3,4-thiadiazol-2-yl)azepan-4-yl)acetamide], the EC50 in experiment [1] (setting [3]) came to 36.3 nM. This compound came in with an IC50 in experiment [2] of 0.61 nM.

On to `CC(=O)N[C@H]1CCCN(c2nnc(-c3cnc(-c4ccc5cc(C#N)cnn45)cc3NC(C)C)s2)C1` [Example 299, (S)-N-(1-(5-(6-(3-cyanopyrrolo[1,2-b]pyridazin-7-yl)-4-(isopropylamino)pyridin-3-yl)-1,3,4-thiadiazol-2-yl)piperidin-3-yl)acetamide], for which the EC50 in experiment [1] (setting [3]) is 41.6 nM. In experiment [2], the IC50 was found to be 0.52 nM.

Consider `CC(=O)N1C[C@H]2C[C@@H]1CN2c1nnc(-c2cnc(-c3ccc4cc(C#N)cnn34)cc2NC(C)C)s1` [Example 303, 7-(5-(5-((1R,4R)-5-acetyl-2,5-diazabicyclo[2.2.1]heptan-2-yl)-1,3,4-thiadiazol-2-yl)-4-(isopropylamino)pyridin-2-yl)pyrrolo[1,2-b]pyridazine-3-carbonitrile], for which the EC50 in experiment [1] (setting [3]) came out at 12.5 nM. This compound yielded an IC50 in experiment [2] of 0.51 nM.

For `CNC(=O)C1CCN(c2nnc(-c3cnc(-c4ccc5cc(C#N)cnn45)cc3NC(C)C)s2)CC1` [Example 305, 1-(5-(6-(3-cyanopyrrolo[1,2-b]pyridazin-7-yl)-4-(isopropylamino)pyridin-3-yl)-1,3,4-thiadiazol-2-yl)-N-methylpiperidine-4-carboxamide], the EC50 in experiment [1] (setting [3]) amounted to 15.9 nM. In addition, the IC50 in experiment [2] is 1.02 nM.

In the case of `CNc1cc(-c2ccc3cc(C#N)cnn23)ncc1-c1nnc(N2CC[C@@H](NC(C)=O)C(F)(F)C2)s1` [Example 306, (R)-N-(1-(5-(6-(3-cyanopyrrolo[1,2-b]pyridazin-7-yl)-4-(methylamino)pyridin-3-yl)-1,3,4-thiadiazol-2-yl)-3,3-difluoropiperidin-4-yl)acetamide], in experiment [1] (setting [3]), the EC50 came to 18.4 nM. Further, in experiment [2], the half-inhibitory concentration (IC50) stood at 1.21 nM.

Consider `CNc1cc(-c2ccc3cc(C#N)cnn23)ncc1-c1nnc(N2CC[C@H](NC(C)=O)C(F)(F)C2)s1` [Example 307, (S)-N-(1-(5-(6-(3-cyanopyrrolo[1,2-b]pyridazin-7-yl)-4-(methylamino)pyridin-3-yl)-1,3,4-thiadiazol-2-yl)-3,3-difluoropiperidin-4-yl)acetamide], for which, in experiment [1] (setting [3]), the EC50 amounted to 53.7 nM. In addition, the IC50 in experiment [2] stood at 0.83 nM.

Regarding `CC(C)Nc1cc(-c2ccc3cc(C#N)cnn23)ncc1-c1nnc(N2CCC(C#N)CC2)s1` [Example 310, 7-(5-(5-(4-cyanopiperidin-1-yl)-1,3,4-thiadiazol-2-yl)-4-(isopropylamino)pyridin-2-yl)pyrrolo[1,2-b]pyridazine-3-carbonitrile], in experiment [1] (setting [3]), the EC50 came out at 25.9 nM. The compound also showed an IC50 in experiment [2] of 0.66 nM.

Take `CC(=O)NC1CC=C(c2nnc(-c3cnc(-c4ccc5cc(C#N)cnn45)cc3NC(C)C)s2)CC1` (stereo not drawn) [Example 313, N-(4-(5-(6-(3-cyanopyrrolo[1,2-b]pyridazin-7-yl)-4-(isopropylamino)pyridin-3-yl)-1,3,4-thiadiazol-2-yl)cyclohex-3-en-1-yl)acetamide]: the EC50 in experiment [1] (setting [3]) worked out at 48.6 nM. In experiment [2], the IC50 stood at 1.47 nM.

For `CC(C)Nc1cc(-c2ccc3cc(C#N)cnn23)ncc1-c1nnc([C@H]2CC[C@H](NC(=O)C3(C)COC3)CC2)s1` [Example 314, N-((1r,4r)-4-(5-(6-(3-cyanopyrrolo[1,2-b]pyridazin-7-yl)-4-(isopropylamino)pyridin-3-yl)-1,3,4-thiadiazol-2-yl)cyclohexyl)-3-methyloxetane-3-carboxamide], the EC50 in experiment [1] (setting [3]) was determined as 10.1 nM. In addition, it took 0.55 nM to reach half-maximal inhibition in experiment [2] (IC50).

For the compound `CC(=O)N[C@H]1CC[C@H](c2nnc(-c3cnc(-c4ccc5cc(C#N)cnn45)cc3N[C@H](C)C#N)s2)CC1` [Example 316, N-((1R,4r)-4-(5-(4-(((R)-1-cyanoethyl)amino)-6-(3-cyanopyrrolo[1,2-b]pyridazin-7-yl)pyridin-3-yl)-1,3,4-thiadiazol-2-yl)cyclohexyl)acetamide], the EC50 in experiment [1] (setting [3]) was 5.3 nM. In addition, it took 0.59 nM to reach half-maximal inhibition in experiment [2] (IC50).

In the case of `[2H]C([2H])([2H])C(O)(CCc1nnc(-c2cnc(-c3ccc4cc(C#N)cnn34)cc2NC(C)C)s1)C([2H])([2H])[2H]` [Example 317, 7-(5-(5-(3-hydroxy-3-(methyl-d3)butyl-4,4,4-d3)-1,3,4-thiadiazol-2-yl)-4-(isopropylamino)pyridin-2-yl)pyrrolo[1,2-b]pyridazine-3-carbonitrile], the concentration giving a half-maximal response (EC50) in experiment [1] (setting [3]) stood at 4.4 nM. In experiment [2], this compound returned an IC50 of 0.6 nM.

Regarding `CC(C)Nc1cc(-c2ccc3cc(C#N)cnn23)ncc1-c1nnc(CC(=O)O)s1` [Example 319, 2-(5-(6-(3-cyanopyrrolo[1,2-b]pyridazin-7-yl)-4-(isopropylamino)pyridin-3-yl)-1,3,4-thiadiazol-2-yl)acetic acid], the EC50 in experiment [1] (setting [3]) was 126 nM. Moreover, in experiment [2], half-maximal inhibition (IC50) required 1.68 nM.

Regarding `CC(C)Nc1cc(-c2ccc3cc(C#N)cnn23)ncc1-c1nnc(CC(C)(C)O)s1` [Example 320, 7-(5-(5-(2-hydroxy-2-methylpropyl)-1,3,4-thiadiazol-2-yl)-4-(isopropylamino)pyridin-2-yl)pyrrolo[1,2-b]pyridazine-3-carbonitrile], the EC50 in experiment [1] (Homo sapiens, Monocyte) came to 68.3 nM. In experiment [2], this compound had an IC50 of 1.18 nM.

With `N#Cc1cnn2c(-c3cc(NC4CCOCC4)c(-c4nnc(C56CCC(N)(CC5)CC6)s4)cn3)ccc2c1` [Example 336, 7-(5-(5-(4-aminobicyclo[2.2.2]octan-1-yl)-1,3,4-thiadiazol-2-yl)-4-((tetrahydro-2H-pyran-4-yl)amino)pyridin-2-yl)pyrrolo[1,2-b]pyridazine-3-carbonitrile], the EC50 in experiment [1] (Homo sapiens, Monocyte) turned out to be 11 nM. The same compound yielded an IC50 in experiment [2] of 0.7 nM.

As to “(S)-7-(5-(5-(2-(aminomethyl)pyrrolidine-1-carbonyl)-1,3,4-thiadiazol-2-yl)-4-(isopropylamino)pyridin-2-yl)pyrrolo[1,2-b]pyridazine-3-carbonitrile [Compound 242]”, the EC50 in experiment [1] (human monocytes, second part of Table 2, compounds 33-343, unit inferred) stood at 752 nM. Also, the IC50 in experiment [2] (second part of Table 2, compounds 33-343, unit inferred, read-out: IC50 IRAK4-HTBS) is 2.76 nM.
